ChEMBL document CHEMBL4342418, “1,2,3-Triazole-containing hybrids as potential anticancer agents: Current developments, action mechanisms and structure-activity relationships” (Eur J Med Chem, 2019)
pIC50: −log10 of the molar value.

Key:
HepG2 [1] = assay: Antiproliferative activity against human HepG2 cells by MTT assay; type: functional, cell-based
KB = assay: Antiproliferative activity against human KB cells by MTT assay; type: functional, cell-based
MCF7 [2] = assay: cells; type: functional, cell-based; details: Homo sapiens
Description: Antiproliferative activity against human MCF7 cells by MTT assay

MDA-MB-231 [3] = assay: Antiproliferative activity against human MDA-MB-231 cells by MTT assay; type: functional, cell-based
T47D = assay: Antiproliferative activity against human T47D cells by MTT assay; type: functional, cell-based
A549 [4] = assay: Antiproliferative activity against human A549 cells assessed as reduction in cell viability after 48 hrs by MTT assay; type: functional, cell-based; details: A549, 48 h
DU-145 = assay: Antiproliferative activity against human DU145 cells assessed as reduction in cell viability after 48 hrs by MTT assay; type: functional, cell-based; details: DU-145, 48 h
HT-29 = assay: Antiproliferative activity against human HT-29 cells assessed as reduction in cell viability after 48 hrs by MTT assay; type: functional, cell-based; details: HT-29, 48 h
MCF7 [5] = assay: Antiproliferative activity against human MCF7 cells assessed as reduction in cell viability after 48 hrs by SRB assay; type: functional, cell-based; details: MCF7, 48 h
HeLa [6] = assay: Antiproliferative activity against human HeLa cells assessed as reduction in cell viability after 48 hrs by SRB assay; type: functional
HepG2 [7] = assay: Antiproliferative activity against human HepG2 cells assessed as reduction in cell viability after 48 hrs by SRB assay; type: functional; details: HepG2, 48 h
IMR-32 = assay: Antiproliferative activity against human IMR32 cells assessed as reduction in cell viability after 48 hrs by SRB assay; type: functional; details: IMR-32, 48 h
A549 [8] = assay: cells; type: functional, cell-based; details: Homo sapiens
Description: Antiproliferative activity against human A549 cells by MTT assay

HBL-100 = assay: Antiproliferative activity against human HBL100 cells by MTT assay; type: functional, cell-based
HeLa [9] = assay: Antiproliferative activity against human HeLa cells by MTT assay; type: functional, cell-based
SW1573 = assay: Antiproliferative activity against human SW1573 cells by MTT assay; type: functional, cell-based
WiDr = assay: Antiproliferative activity against human WiDr cells by MTT assay; type: functional, cell-based
MCF-10A = assay: Cytotoxicity against human MCF10A cells by MTT assay; type: cell-based
K562 = assay: Antiproliferative activity against human K562 cells assessed as reduction in cell viability after 24 hrs by MTT assay; type: functional, cell-based; details: K562, 24 h
PC-3 = assay: Antiproliferative activity against human PC3 cells assessed as reduction in cell viability after 24 hrs by MTT assay; type: functional, cell-based; details: PC-3, 24 h
A-431 = assay: Antiproliferative activity against human A431 cells assessed as reduction in cell viability after 24 hrs by MTT assay; type: functional, cell-based; details: A-431, 24 h
MDA-MB-231 [10] = assay: Antiproliferative activity against human MDA-MB-231 cells assessed as reduction in cell viability after 24 hrs by MTT assay; type: functional, cell-based; details: MDA-MB-231, 24 h
COLO 205 = assay: Antiproliferative activity against human COLO205 cells assessed as reduction in cell viability after 24 hrs by MTT assay; type: functional, cell-based; details: COLO 205, 24 h
A549 [11] = assay: Antiproliferative activity against human A549 cells assessed as reduction in cell viability after 24 hrs by MTT assay; type: functional, cell-based; details: A549, 24 h

O=C(NCc1cn(CC(O)Cn2c3c(c4ccccc4c2=O)C(=O)c2ccccc2-3)nn1)c1ccc(Br)cc1 (stereo not given)
6.12: pIC50 (HepG2 [1])
6.10: pIC50 (KB)

COc1ccc(Cn2cc(Cn3c4ccccc4c(=O)c4cc(OC)ccc43)nn2)cc1
4.78 to 4.96: pIC50 (MCF7 [2]) | pIC50 (MDA-MB-231 [3]) | pIC50 (T47D)

O=C(c1cn(Cc2cccc(Oc3ccccc3)c2)nn1)c1cccnc1Nc1ccc(F)cc1
5.96 to 7.00: pIC50 (A549 [4]) | pIC50 (DU-145) | pIC50 (HT-29)

Cc1ccc(-c2c(OCc3cn(Cc4ccc([N+](=O)[O-])cc4)nn3)cnn2-c2ccc(F)cc2)cc1
1.8 to 9.7 µM: GI50 (MCF7 [5]) | GI50 (HeLa [6]) | GI50 (HepG2 [7]) | GI50 (IMR-32)

COC(=O)c1coc([C@H](Cc2ccccc2)n2cc(CC3CC(CCc4ccccc4)CC(O[Si](C)(C)C(C)(C)C)C3)nn2)n1 (stereo not given in full)
4.06 to 5.51: pIC50 (A549 [8]) | pIC50 (HBL-100) | pIC50 (HeLa [9]) | pIC50 (SW1573) | pIC50 (T47D) | pIC50 (WiDr)

Cc1cn([C@H]2C[C@H](n3cc(CCOC(=O)CCC(=O)O[C@@H]4O[C@@H]5O[C@@]6(C)CC[C@H]7[C@H](C)CC[C@@H]([C@H]4C)[C@@]57OO6)nn3)[C@@H](CO)O2)c(=O)[nH]c1=O
4.35: pIC50 (HepG2 [1])
4.78: pIC50 (KB)

Cc1ccc(-c2c(OCc3cn(Cc4ccccc4Br)nn3)cnn2-c2ccc(F)cc2)cc1
1.8 to 9.7 µM: GI50 (MCF7 [5]) | GI50 (HeLa [6]) | GI50 (HepG2 [7]) | GI50 (IMR-32)

Cc1c(C(F)(F)F)cc(Cl)c(Cl)c1-n1nnc(-c2nn(-c3ccccc3)cc2C=O)c1C
4.60 to 4.66: pIC50 (MCF-10A)
4.56 to 5.17: pIC50 (MCF7 [2]) | pIC50 (MDA-MB-231 [3])

COC(=O)c1coc(Cn2cc(CC3CC(O[Si](C)(C)C(C)(C)C)CC(C(C)C)C3)nn2)n1 (stereo not given)
4.06 to 5.51: pIC50 (A549 [8]) | pIC50 (HBL-100) | pIC50 (HeLa [9]) | pIC50 (SW1573) | pIC50 (T47D) | pIC50 (WiDr)

Cc1ccc(-c2c(OCc3cn(Cc4ccccc4Cl)nn3)cnn2-c2ccc(F)cc2)cc1
1.8 to 9.7 µM: GI50 (MCF7 [5]) | GI50 (HeLa [6]) | GI50 (HepG2 [7]) | GI50 (IMR-32)

Cc1c(C(=O)Nc2ccccc2)nnn1-c1ccnc2cc(Cl)ccc12
4.50: pIC50 (MCF7 [2])
4.72: pIC50 (MDA-MB-231 [3])

CC(=O)c1cccc(-n2cc(CO[C@H]3O[C@@H]4O[C@@]5(C)O[C@]46[C@@H](CC[C@@H](C)[C@@H]6C[C@H]5O)[C@H]3C)nn2)c1
4.05 to 5.39: pIC50 (K562) | pIC50 (PC-3) | pIC50 (A-431) | pIC50 (MDA-MB-231 [10]) | pIC50 (COLO 205) | pIC50 (A549 [11])

C=CCC1CC(Cc2cn([C@H](c3nc(C(=O)OC)co3)C(C)CC)nn2)CC(O[Si](C)(C)C(C)(C)C)C1 (stereo not given in full)
4.06 to 5.51: pIC50 (A549 [8]) | pIC50 (HBL-100) | pIC50 (HeLa [9]) | pIC50 (SW1573) | pIC50 (T47D) | pIC50 (WiDr)

C=C(C)[C@@H]1CC[C@]2(COC(=O)/C=C/C(=O)OCc3cn([C@H]4C[C@H](n5ccc(=O)[nH]c5=O)O[C@@H]4CO)nn3)CC[C@]3(C)[C@H](CC[C@@H]4[C@@]5(C)CC[C@H](O)C(C)(C)[C@@H]5CC[C@]43C)C12 (stereo not given in full)
5.89: pIC50 (HepG2 [1])
6.52: pIC50 (KB)

COc1ccc(Cn2cc(COc3cnn(-c4ccc(F)cc4)c3-c3ccc(C)cc3)nn2)cc1
1.8 to 9.7 µM: GI50 (MCF7 [5]) | GI50 (HeLa [6]) | GI50 (HepG2 [7]) | GI50 (IMR-32)

COc1ccc(Cn2cc(COc3cnn(-c4ccc(C)cc4)c3)nn2)cc1
1.8 to 9.7 µM: GI50 (MCF7 [5]) | GI50 (HeLa [6]) | GI50 (HepG2 [7]) | GI50 (IMR-32)

CCC(C)[C@@H](c1nc(C(=O)OC)co1)n1cc(CC2CC(O[Si](C)(C)C(C)(C)C)CC(C(C)C)C2)nn1 (stereo not given in full)
4.06 to 5.51: pIC50 (A549 [8]) | pIC50 (HBL-100) | pIC50 (HeLa [9]) | pIC50 (SW1573) | pIC50 (T47D) | pIC50 (WiDr)

Cc1ccc(-n2cc(OCc3cn(Cc4ccccc4Br)nn3)cn2)cc1
1.8 to 9.7 µM: GI50 (MCF7 [5]) | GI50 (HeLa [6]) | GI50 (HepG2 [7]) | GI50 (IMR-32)

O=[N+]([O-])c1ccc(Cn2cc(COc3cnn(-c4ccccc4)c3-c3ccccc3)nn2)cc1
1.8 to 9.7 µM: GI50 (MCF7 [5]) | GI50 (HeLa [6]) | GI50 (HepG2 [7]) | GI50 (IMR-32)
